Molecular target: USP30 (Homo sapiens (Human), UniProt Q70CQ3)
Assay: USP30 Biochemical IC50 Assay
Settings: fluorescence polarisation, TAMRA labelled peptide linked to ubiquitin; 30 min pre-incubation, read after 2 h; read-out: IC50 range
Procedure: Reactions were performed in duplicate in black 384 well plates (small volume, Greiner 784076) in a final reaction volume of 21 μl. Either 1 μl of 50% DMSO or diluted compound was added to the plate. […] Enzyme and compound were incubated for 30 min at room temp. Reactions were initiated by the addition of 50 nM of TAMRA labelled peptide linked to ubiquitin via an iso-peptide bond as fluorescence polarisation substrate. Reactions were read immediately after addition of substrate and following a 2 h incubation at room temperature. Readings were performed on a Pherastar Plus (BMG Labtech). λ Excitation 540 nm; λ Emission 590 nm.

USP30, sequence (Q70CQ3 57-517): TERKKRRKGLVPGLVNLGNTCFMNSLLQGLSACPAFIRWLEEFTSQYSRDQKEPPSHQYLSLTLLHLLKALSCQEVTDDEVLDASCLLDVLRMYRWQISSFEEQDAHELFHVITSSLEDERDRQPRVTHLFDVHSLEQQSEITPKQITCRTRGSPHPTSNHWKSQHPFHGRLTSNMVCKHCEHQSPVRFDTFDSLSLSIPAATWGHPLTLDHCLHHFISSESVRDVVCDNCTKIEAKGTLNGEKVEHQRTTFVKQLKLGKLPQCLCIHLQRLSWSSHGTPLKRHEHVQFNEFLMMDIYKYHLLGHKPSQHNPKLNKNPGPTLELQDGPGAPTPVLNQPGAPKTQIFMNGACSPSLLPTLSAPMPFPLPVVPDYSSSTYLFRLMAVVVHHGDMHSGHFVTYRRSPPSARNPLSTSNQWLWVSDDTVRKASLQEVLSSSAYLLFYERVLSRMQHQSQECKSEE

SMILES | IC50 [nM]
CC1CC(c2cc(-c3cccc(-c4ccccc4)c3)n[nH]2)CN1C#N (stereo not shown) [Example 27, 4-(3-([1,1′-Biphenyl]-3-yl)-1H-pyrazol-5-yl)-2-methylpyrrolidine-1-carbonitrile] | 1000 to 10000
Cn1cc(-c2cccc(-c3cc(C4CCN(C#N)C4)n[nH]3)c2)cn1 (stereo not shown) [Example 31, 3-(5-(3-(1-Methyl-1H-pyrazol-4-yl)phenyl)-1H-pyrazol-3-yl)pyrrolidine-1-carbonitrile] | 1000 to 10000
N#CN1CC[C@@H](c2cc(-c3cccc(-c4cnoc4)c3)[nH]n2)C1 [Example 32, 3-(5-(3-(Isoxazol-4-yl)phenyl)-1H-pyrazol-3-yl)pyrrolidine-1-carbonitrile] | 1000 to 10000
Cn1cnc(-c2cccc(-c3cc(C4CCN(C#N)C4)n[nH]3)c2)c1 (stereo not shown) [Example 34, 3-(5-(3-(1-Methyl-1H-imidazol-4-yl)phenyl)-1H-pyrazol-3-yl)pyrrolidine-1-carbonitrile] | 1000 to 10000
N#CN1CCC(c2cc(-c3ccc(-c4ccccc4)nc3)n[nH]2)C1 (stereo not shown) [Example 40] | 100 to 1000
N#CN1CCC(c2noc(-c3ccc(-c4ccccc4)[nH]c3=O)n2)C1 (stereo not shown) [Example 52, 3-(5-(2-Oxo-6-phenyl-1,2-dihydropyridin-3-yl)-1,2,4-oxadiazol-3-yl)pyrrolidine-1-carbonitrile] | 1000 to 10000
N#CN1CCC(c2noc(-c3cccc(-c4ccccc4)c3)n2)C1 (stereo not shown) [Example 55] | < 100
Cc1ccc2cc(-c3nc(C4CCN(C#N)C4)no3)ccc2n1 (stereo not shown) [Example 56, 3-(5-(2-Methylquinolin-6-yl)-1,2,4-oxadiazol-3-yl)pyrrolidine-1-carbonitrile] | 1000 to 10000
N#CN1CCC(c2noc(-c3cc(Cl)cc(OC(F)(F)F)c3)n2)C1 (stereo not shown) [Example 57, 3-(5-(3-Chloro-5-(trifluoromethoxy)phenyl)-1,2,4-oxadiazol-3-yl)pyrrolidine-1-carbonitrile] | 100 to 1000
COc1cc(-c2nc(C3CCN(C#N)C3)no2)nc2ccccc12 (stereo not shown) [Example 58, 3-(5-(4-Methoxyquinolin-2-yl)-1,2,4-oxadiazol-3-yl)pyrrolidine-1-carbonitrile] | 1000 to 10000
N#CN1CCC(c2noc(-c3ccccc3OCc3ccccc3)n2)C1 (stereo not shown) [Example 59, 3-(5-(2-(Benzyloxy)phenyl)-1,2,4-oxadiazol-3-yl)pyrrolidine-1-carbonitrile] | 1000 to 10000
N#CN1CCC(c2noc(-c3ccc(Br)cc3)n2)C1 (stereo not shown) [Example 60, 3-(5-(4-Bromophenyl)-1,2,4-oxadiazol-3-yl)pyrrolidine-1-carbonitrile] | 1000 to 10000
N#CN1CCC(c2noc(-c3ccc(N4CCOCC4)cc3)n2)C1 (stereo not shown) [Example 61, 3-(5-(4-Morpholinophenyl)-1,2,4-oxadiazol-3-yl)pyrrolidine-1-carbonitrile] | 1000 to 10000
CO[C@@H]1CCN(c2ccc(-c3nc(C4CCN(C#N)C4)no3)cc2)C1 (stereo partly drawn) [Example 62, 3-(5-(4-((R)-3-Methoxypyrrolidin-1-yl)phenyl)-1,2,4-oxadiazol-3-yl)pyrrolidine-1-carbonitrile] | 1000 to 10000
N#CN1CC[C@@H](c2noc(-c3cc(-c4ccccc4)ccn3)n2)C1 [Example 63, (R)-3-(5-(4-Phenylpyridin-2-yl)-1,2,4-oxadiazol-3-yl)pyrrolidine-1-carbonitrile] | 100 to 1000
N#CN1CC[C@@H](c2noc(C3CCN(c4ncccn4)CC3)n2)C1 [Example 64, (R)-3-(5-(1-(Pyrimidin-2-yl)piperidin-4-yl)-1,2,4-oxadiazol-3-yl)pyrrolidine-1-carbonitrile] | 1000 to 10000
N#CN1CC[C@@H](c2noc(-c3ccnc(N4CCc5ccccc5C4)c3)n2)C1 [Example 65, (R)-3-(5-(2-(3,4-Dihydroisoquinolin-2(1H)-yl)pyridin-4-yl)-1,2,4-oxadiazol-3-yl)pyrrolidine-1-carbonitrile] | 1000 to 10000
Cn1cc(-c2ccc(-c3nc(C4CCN(C#N)C4)no3)cc2)cn1 (stereo not shown) [Example 66, 3-(5-(4-(1-Methyl-1H-pyrazol-4-yl)phenyl)-1,2,4-oxadiazol-3-yl)pyrrolidine-1-carbonitrile] | 100 to 1000
N#CN1CCCC1c1noc(-c2ccc(-c3ccccc3)cc2)n1 (stereo not shown) [Example 67, 2-(5-([1,1′-Biphenyl]-4-yl)-1,2,4-oxadiazol-3-yl)pyrrolidine-1-carbonitrile] | 1000 to 10000
N#CN1CCCC1c1noc(-c2cccc(-c3ccccc3)c2)n1 (stereo not shown) [Example 68, 2-(5-([1,1′-Biphenyl]-3-yl)-1,2,4-oxadiazol-3-yl)pyrrolidine-1-carbonitrile] | 100 to 1000
N#CN1CCC(c2noc(C3CCN(c4ccccc4)C3)n2)C1 (stereo not shown) [Example 69, 3-(5-(1-Phenylpyrrolidin-3-yl)-1,2,4-oxadiazol-3-yl)pyrrolidine-1-carbonitrile] | 100 to 1000
Cn1cc(-c2cc(-c3nc([C@@H]4CCN(C#N)C4)no3)ccc2F)cn1 [Example 70, (R)-3-(5-(4-Fluoro-3-(1-methyl-1H-pyrazol-4-yl)phenyl)-1,2,4-oxadiazol-3-yl)pyrrolidine-1-carbonitrile] | 100 to 1000
COc1cc(-c2nc([C@@H]3CCN(C#N)C3)no2)ccc1-c1cnn(C)c1 [Example 71, (R)-3-(5-(3-Methoxy-4-(1-methyl-1H-pyrazol-4-yl)phenyl)-1,2,4-oxadiazol-3-yl)pyrrolidine-1-carbonitrile] | 100 to 1000
N#Cc1cccc(-c2ccc3nc(C4CCN(C#N)C4)[nH]c3c2)c1 (stereo not shown) [Example 72, 3-(6-(3-Cyanophenyl)-1H-benzo[d]imidazol-2-yl)pyrrolidine-1-carbonitrile] | 100 to 1000
N#CN1CCC(c2nc3ccc(-c4ccccc4OCc4ccccc4)cc3[nH]2)C1 (stereo not shown) [Example 73, 3-(6-(2-(Benzyloxy)phenyl)-1H-benzo[d]imidazol-2-yl)pyrrolidine-1-carbonitrile] | 100 to 1000
N#CN1CCC(c2nc3ccc(-c4ccc(C(N)=O)cc4)cc3[nH]2)C1 (stereo not shown) [Example 74, 4-(2-(1-Cyanopyrrolidin-3-yl)-1H-benzo[d]imidazol-6-yl)benzamide] | 100 to 1000

The remaining lines, values ahead:

IC50 [nM] | SMILES
< 100 | N#CN1CCC(c2[nH]nc(-c3cccc(-c4ccccc4)c3)c2F)C1 (stereo not shown) [Example 15, 3-(3-([1,1′-Biphenyl]-3-yl)-4-fluoro-1H-pyrazol-5-yl)pyrrolidine-1-carbonitrile]
100 to 1000 | N#CN1CCC(c2cc(-c3ccc4ccccc4c3)n[nH]2)C1 (stereo not shown) [Example 18, 3-(3-(Naphthalen-2-yl)-1H-pyrazol-5-yl)pyrrolidine-1-carbonitrile]
< 100 | C[C@H]1CN(C#N)C[C@@H]1c1[nH]nc(-c2cccc(-c3ccccc3)c2)c1F [Example 22]
100 to 1000 | C[C@H]1CN(C#N)C[C@@H]1c1[nH]nc(-c2cccc(-c3ccccc3)c2)c1F [Example 23]
100 to 1000 | C[C@@H]1CN(C#N)C[C@H]1c1cc(-c2cccc(-c3ccccc3)c2)nn1C [Example 24]
100 to 1000 | C[C@@H]1CN(C#N)C[C@H]1c1cc(-c2cccc(-c3ccccc3)c2)n(C)n1 [Example 25]
100 to 1000 | N#CN1CCC(c2cc(-c3cccc(-c4cccnc4)c3)n[nH]2)C1 (stereo not shown) [Example 26, 3-(3-(3-(Pyridin-3-yl)phenyl)-1H-pyrazol-5-yl)pyrrolidine-1-carbonitrile]
100 to 1000 | N#CN1CCC(c2cc(-c3cccc(-c4ccncc4)c3)n[nH]2)C1 (stereo not shown) [Example 28, 3-(3-(3-(Pyridin-4-yl)phenyl)-1H-pyrazol-5-yl)pyrrolidine-1-carbonitrile]
100 to 1000 | N#CN1CCC(c2cc(-c3cccc(-c4ccc(Cl)cc4)c3)n[nH]2)C1 (stereo not shown) [Example 29, 3-(3-(4′-Chloro-[1,1′-biphenyl]-3-yl)-1H-pyrazol-5-yl)pyrrolidine-1-carbonitrile]
100 to 1000 | COc1ccc(-c2cccc(-c3cc(C4CCN(C#N)C4)[nH]n3)c2)cc1 (stereo not shown) [Example 30, 3-(3-(4′-Methoxy-[1,1′-biphenyl]-3-yl)-1H-pyrazol-5-yl)pyrrolidine-1-carbonitrile]
100 to 1000 | N#CN1CCC(c2cc(-c3cccc(-c4cnoc4)c3)[nH]n2)C1 (stereo not shown) [Example 33, 3-(5-(3-(Isoxazol-4-yl)phenyl)-1H-pyrazol-3-yl)pyrrolidine-1-carbonitrile]
100 to 1000 | N#CN1CCC(c2cc(-c3ccc(-c4ccccc4)cc3)[nH]n2)C1 (stereo not shown) [Example 35, 3-(5-([1,1′-Biphenyl]-4-yl)-1H-pyrazol-3-yl)pyrrolidine-1-carbonitrile]
100 to 1000 | N#CN1CCC(c2cc(-c3cncc(-c4ccccc4)c3)[nH]n2)C1 (stereo not shown) [Example 36, 3-(5-(5-Phenylpyridin-3-yl)-1H-pyrazol-3-yl)pyrrolidine-1-carbonitrile]
100 to 1000 | N#CN1CCC(c2cc(-c3cccc(-c4ccccc4)n3)[nH]n2)C1 (stereo not shown) [Example 37, 3-(5-(6-Phenylpyridin-2-yl)-1H-pyrazol-3-yl)pyrrolidine-1-carbonitrile]
100 to 1000 | N#CN1CCC(c2cc(-c3ccnc(-c4ccccc4)c3)[nH]n2)C1 (stereo not shown) [Example 38, 3-(5-(2-Phenylpyridin-4-yl)-1H-pyrazol-3-yl)pyrrolidine-1-carbonitrile]
100 to 1000 | N#CN1CCC(c2cc(-c3ccnc(-c4cccnc4)c3)n[nH]2)C1 (stereo not shown) [Example 47, 3-(3-([2,3′-Bipyridin]-4-yl)-1H-pyrazol-5-yl)pyrrolidine-1-carbonitrile]
100 to 1000 | N#CN1CCC(c2cc(NC(=O)c3ccccc3)n[nH]2)C1 (stereo not shown) [Example 50, N-(3-(1-Cyanopyrrolidin-3-yl)-1H-pyrazol-5-yl)benzamide]
100 to 1000 | N#CN1CCC(c2cc(NC(=O)Cc3ccccc3)n[nH]2)C1 (stereo not shown) [Example 51]
100 to 1000 | N#CN1CCC(c2noc(-c3cc(-c4ccccc4)nc4ccccc34)n2)C1 (stereo not shown) [Example 53, 3-(5-(2-Phenylquinolin-4-yl)-1,2,4-oxadiazol-3-yl)pyrrolidine-1-carbonitrile]
100 to 1000 | N#CN1CCC(c2noc(-c3ccc4ncsc4c3)n2)C1 (stereo not shown) [Example 54, 3-(5-(Benzo[d]thiazol-6-yl)-1,2,4-oxadiazol-3-yl)pyrrolidine-1-carbonitrile]

Reference: US11352339B2 (MISSION THERAPEUTICS LIMITED, priority 2016, dated 2022)
